# According to US10654833B2, “ASK1 isoindolin-1-one inhibitors and methods of use thereof” (Hepatikos Therapeutics, LLC, priority 2018, dated 2020):
# Biological target: recombinant human ASK1 protein (Homo sapiens (Human), UniProt Q99683)
# Experiment: ASK1 kinase activity inhibition assay (radiometric 33P incorporation into MBP)
# Format: biochemical
# Conditions: Table 3; 20 μM MBP, 10 μM 33P-ATP
# Outline: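 Compound (1% DMSO final) was preincubated for 20 min at room temperature with recombinant human ASK1 and 20 μM MBP in HEPES pH 7.5 buffer. Reactions started with 10 μM 33P-ATP and ran for 2 h at room temperature. 33P incorporation into MBP was measured by P81 filter binding.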
# recombinant human ASK1 protein, sequence (Q99683 whole entry): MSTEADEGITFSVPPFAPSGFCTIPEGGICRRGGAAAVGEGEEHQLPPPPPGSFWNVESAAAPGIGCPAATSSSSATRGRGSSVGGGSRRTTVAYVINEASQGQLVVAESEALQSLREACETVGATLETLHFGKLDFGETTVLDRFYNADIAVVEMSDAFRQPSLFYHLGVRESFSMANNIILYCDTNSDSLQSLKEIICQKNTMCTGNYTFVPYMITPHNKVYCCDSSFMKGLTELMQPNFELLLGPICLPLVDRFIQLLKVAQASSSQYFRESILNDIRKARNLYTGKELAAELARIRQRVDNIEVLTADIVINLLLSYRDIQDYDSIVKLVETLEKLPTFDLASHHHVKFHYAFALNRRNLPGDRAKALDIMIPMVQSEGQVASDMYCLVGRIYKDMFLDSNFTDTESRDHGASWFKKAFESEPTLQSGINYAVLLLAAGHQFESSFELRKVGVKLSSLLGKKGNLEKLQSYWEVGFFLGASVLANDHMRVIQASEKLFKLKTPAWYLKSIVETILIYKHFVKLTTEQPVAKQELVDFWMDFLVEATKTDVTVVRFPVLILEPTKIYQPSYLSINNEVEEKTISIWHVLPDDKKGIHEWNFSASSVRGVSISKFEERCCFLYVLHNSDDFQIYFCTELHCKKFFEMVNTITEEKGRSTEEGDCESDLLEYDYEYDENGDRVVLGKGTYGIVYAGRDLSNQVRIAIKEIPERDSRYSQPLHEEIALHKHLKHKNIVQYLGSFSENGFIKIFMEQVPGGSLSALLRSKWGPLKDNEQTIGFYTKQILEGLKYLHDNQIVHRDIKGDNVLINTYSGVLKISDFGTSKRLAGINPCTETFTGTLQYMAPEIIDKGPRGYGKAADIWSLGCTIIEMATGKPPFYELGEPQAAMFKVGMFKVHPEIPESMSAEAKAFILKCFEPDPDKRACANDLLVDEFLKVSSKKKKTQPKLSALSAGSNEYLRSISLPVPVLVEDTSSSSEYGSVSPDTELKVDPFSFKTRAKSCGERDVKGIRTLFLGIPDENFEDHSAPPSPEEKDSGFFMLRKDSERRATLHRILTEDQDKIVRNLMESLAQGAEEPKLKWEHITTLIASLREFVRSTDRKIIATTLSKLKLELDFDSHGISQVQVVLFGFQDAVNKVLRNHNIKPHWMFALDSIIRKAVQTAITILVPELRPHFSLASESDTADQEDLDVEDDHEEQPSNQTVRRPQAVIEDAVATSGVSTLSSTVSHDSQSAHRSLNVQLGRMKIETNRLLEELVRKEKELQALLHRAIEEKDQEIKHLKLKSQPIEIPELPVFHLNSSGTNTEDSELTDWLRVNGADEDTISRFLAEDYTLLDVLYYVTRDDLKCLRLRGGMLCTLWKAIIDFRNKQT
row,SMILES,IC50
1,"CC(C)n1cnnc1-c1cccc(N2Cc3ccc(-c4cccc(C(C)(C)C(=O)O)c4)cc3C2=O)n1 [Compound 102, 2-(3-(2-(6-(4-Isopropyl-4H-1,2,4-triazol-3-yl)pyridin-2-yl)-3-oxoisoindolin-5-yl)phenyl)-2-methylpropanoic Acid]",0.7 nM
2,"CC(C)n1cnnc1-c1cccc(N2Cc3ccc(-c4ccc(-n5ncc(C(=O)O)c5N)cc4)cc3C2=O)n1 [Compound 120, 5-Amino-1-(4-(2-(6-(4-isopropyl-4H-1,2,4-triazol-3-yl)pyridin-2-yl)-3-oxoisoindolin-5-yl)phenyl)-1H-pyrazole-4-carboxylic Acid]",8.2 nM
3,"CC(C(=O)O)c1ccc(-c2ccc3c(c2)C(=O)N(c2cccc(-c4nncn4C(C)C)n2)C3)cc1 (stereo not shown) [Compound 85, 2-(4-(2-(6-(4-Isopropyl-4H-1,2,4-triazol-3-yl)pyridin-2-yl)-3-oxoisoindolin-5-yl)phenyl)propanoic Acid]",3.6 nM
4,"Cc1cc(-c2ccc3c(c2)C(=O)N(c2cccc(-c4nncn4C(C)C)n2)C3)ccc1C(=O)O [Compound 73, 4-(2-(6-(4-isopropyl-4H-1,2,4-triazol-3-yl)pyridin-2-yl)-3-oxoisoindolin-5-yl)-2-methyl]",14.3 nM
5,"CC(C)n1cnnc1-c1cccc(N2Cc3ccc([C@H]4CC[C@@H](C(=O)O)CC4)cc3C2=O)n1 [Compound 127, cis-4-(2-(6-(4-Isopropyl-4H-1,2,4-triazol-3-yl)pyridin-2-yl)-3-oxoisoindolin-5-yl)cyclohexane-1-carboxylic acid]",14.6 nM
6,"CC(C)n1cnnc1-c1cccc(N2Cc3ccc(-c4cc(C(=O)O)ccc4C#N)cc3C2=O)n1 [Compound 14, 4-Cyano-3-(2-(6-(4-isopropyl-4H-1,2,4-triazol-3-yl)pyridin-2-yl)-3-oxoisoindolin-5-yl) Benzoic Acid]",15.6 nM
7,"CC(C)n1cnnc1-c1cccc(N2Cc3ccc(-c4cccc(C(=O)O)c4O)cc3C2=O)n1 [Compound 95, 2-Hydroxy-3-(2-(6-(4-isopropyl-4H-1,2,4-triazol-3-yl)pyridin-2-yl)-3-oxoisoindolin-5-yl) benzoic Acid]",3.4 nM
8,"CC(C)n1cnnc1-c1cccc(N2Cc3ccc(-c4ccc(C(=O)O)cc4)cc3C2=O)n1 [Compound 55, 4-(2-(6-(4-Isopropyl-4H-1,2,4-triazol-3-yl)pyridin-2-yl)-3-oxoisoindolin-5-yl)benzoic Acid]",5.4 nM
9,"CC(C)n1cnnc1-c1cccc(N2Cc3ccc(-c4c(F)cccc4C(=O)O)cc3C2=O)n1 [Compound 70, 3-Fluoro-2-(2-(6-(4-isopropyl-4H-1,2,4-triazol-3-yl)pyridin-2-yl)-3-oxoisoindolin-5-yl)benzoic Acid]",160 nM

# Biological target: human OATP1B1 transporter (Homo sapiens (Human), UniProt Q9Y6L6)
# Sequence (Q9Y6L6 whole entry): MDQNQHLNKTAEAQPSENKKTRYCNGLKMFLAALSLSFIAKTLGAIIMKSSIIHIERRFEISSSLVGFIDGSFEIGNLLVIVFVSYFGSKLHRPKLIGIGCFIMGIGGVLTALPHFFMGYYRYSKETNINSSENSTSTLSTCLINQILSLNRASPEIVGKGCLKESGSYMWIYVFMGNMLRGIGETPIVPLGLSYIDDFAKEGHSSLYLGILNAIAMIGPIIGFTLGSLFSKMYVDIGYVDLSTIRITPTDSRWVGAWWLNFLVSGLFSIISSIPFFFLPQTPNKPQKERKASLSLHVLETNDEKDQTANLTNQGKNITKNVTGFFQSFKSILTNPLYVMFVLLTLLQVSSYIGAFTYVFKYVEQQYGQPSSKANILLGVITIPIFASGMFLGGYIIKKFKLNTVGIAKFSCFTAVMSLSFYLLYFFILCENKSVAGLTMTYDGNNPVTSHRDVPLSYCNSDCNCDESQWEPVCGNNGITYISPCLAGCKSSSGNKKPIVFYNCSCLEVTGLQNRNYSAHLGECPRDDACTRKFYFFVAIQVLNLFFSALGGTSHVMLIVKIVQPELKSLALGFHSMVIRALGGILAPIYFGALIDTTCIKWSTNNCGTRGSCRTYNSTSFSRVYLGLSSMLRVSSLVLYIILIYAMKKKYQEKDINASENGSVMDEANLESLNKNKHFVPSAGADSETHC
# Experiment: Transporter mediated cellular uptake, OATP1B1-expressing HEK293
# Format: in vitro ADME
# Conditions: HEK293 stably expressing human OATP1B1, 37° C., 0.5 minutes
# Method: (§1) Transporter Mediated Cellular Uptake
# (§2) To determine transporter mediated cellular uptake of compounds, HEK293 stably expressing either human OATP1B1 or human OATP1B3 transporter, or mock transfected cells were cultured at 37° C. in an atmosphere of 95:5 air:CO2 DMEM/F12 medium containing 10% FBS, 100 unit/mL penicillin-G and 100 μg/mL streptomycin. Transporter expressing cell culture medium also contained 500 μg/mL G418 disulfate solution. Cells were plated onto 24-well poly-D-lysine coated culture plates at the density 5×10^5 cells/well 24 hours prior to uptake assay. Compound stock solutions were made at 1000× final concentration in 100% DMSO. Final compound solutions were prepared by diluting stock solutions into HBSS buffer (pH 7.4) On the day of the uptake assay cell culture media was removed and cells were washed twice with 300 μL of HBSS buffer (pH 7.4). Cellular uptake of compound into the cells was measured by adding 300 μL of final compound solutions in HBSS and incubating them at 37° C. for 0.5 minutes (OATP1B1) or 5 minutes (OATP1B3). Reactions were quenched by removing the buffer containing the TA and the cells were washed twice with 300 μL of HBSS buffer. Cells were lysed by adding 300 μL of MeOH:H2O (2:1) and incubated for 20 minutes at 4° C. The amount of compound in the cell lysate was determined by LC-MS/MS. The amount of protein in each well was quantified using the BCA kit for protein determination and used to normalize compound uptake (Sigma-Aldrich, St Louis, Mo., USA). • Uptake of the probe substrate in control cells provided background activity values for all data points. • Incubation with probe substrate (solvent only) provided 100% activity values. • A reference positive control was used for each transporter
row,SMILES,OATP1B1 Uptake (Percent of no transporter control cell)
1,"CC(C)n1cnnc1-c1cccc(N2Cc3ccc(-c4cccc(C(C)(C)C(=O)O)c4)cc3C2=O)n1 [Compound 102, 2-(3-(2-(6-(4-Isopropyl-4H-1,2,4-triazol-3-yl)pyridin-2-yl)-3-oxoisoindolin-5-yl)phenyl)-2-methylpropanoic Acid]",221%
2,"C[C@]12CC[C@@H]3c4ccc(OS(=O)(=O)O)cc4CC[C@H]3[C@@H]1CCC2=O [Estrone 3-sulphate, reference compound]",685%

# Biological target: human OATP1B3 transporter (Homo sapiens (Human), UniProt Q9NPD5)
# Sequence (Q9NPD5 whole entry): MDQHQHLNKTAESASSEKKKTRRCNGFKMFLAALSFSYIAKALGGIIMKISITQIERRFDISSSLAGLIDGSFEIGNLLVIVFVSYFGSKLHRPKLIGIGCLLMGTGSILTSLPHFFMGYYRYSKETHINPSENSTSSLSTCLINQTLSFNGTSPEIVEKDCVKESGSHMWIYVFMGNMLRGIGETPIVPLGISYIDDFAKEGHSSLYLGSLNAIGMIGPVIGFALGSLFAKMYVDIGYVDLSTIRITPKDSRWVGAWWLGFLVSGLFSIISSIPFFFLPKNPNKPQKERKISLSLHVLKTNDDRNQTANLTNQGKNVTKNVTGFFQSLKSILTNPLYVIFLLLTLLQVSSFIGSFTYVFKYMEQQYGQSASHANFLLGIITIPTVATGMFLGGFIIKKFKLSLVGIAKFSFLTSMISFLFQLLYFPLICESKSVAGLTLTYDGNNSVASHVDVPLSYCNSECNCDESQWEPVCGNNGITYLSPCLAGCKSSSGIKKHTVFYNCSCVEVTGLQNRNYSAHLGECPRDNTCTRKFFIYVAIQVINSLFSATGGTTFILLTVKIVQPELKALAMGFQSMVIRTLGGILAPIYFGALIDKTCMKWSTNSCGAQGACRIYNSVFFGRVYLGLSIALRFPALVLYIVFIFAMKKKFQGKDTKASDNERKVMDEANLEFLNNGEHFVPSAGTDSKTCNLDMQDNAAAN
# Experiment: Transporter mediated cellular uptake, OATP1B3-expressing HEK293
# Format: in vitro ADME
# Conditions: HEK293 stably expressing human OATP1B3, 37° C., 5 minutes
# Method: as §1, §2
row,SMILES,OATP1B3 Uptake (Percent of no transporter control cell)
1,"C[C@]12CC[C@@H]3c4ccc(O)cc4CC[C@H]3[C@@H]1CC[C@@H]2O [Estradiol, reference compound]",490%
2,"CC(C)n1cnnc1-c1cccc(N2Cc3ccc(-c4cccc(C(C)(C)C(=O)O)c4)cc3C2=O)n1 [Compound 102, 2-(3-(2-(6-(4-Isopropyl-4H-1,2,4-triazol-3-yl)pyridin-2-yl)-3-oxoisoindolin-5-yl)phenyl)-2-methylpropanoic Acid]",632%
